In patent publication US20230289968A1, “AUTOMATED ANALYSIS OF CELL CULTURES” (Hoffmann-La Roche Inc., priority 2020, published 2023):

How the values were obtained:
[1] = tested on: MDA-MB-231 cells; test: Breast-cancer-on-chip culture, time-lapse imaging analysed with STAMP (apoptosis rate, Pdeath); type: cell-based; conditions: 1 µM doxorubicin
Protocol: Cell cultures The MDA-MB-231 cell line, from triple negative breast cancer, was cultured in high-glucose DMEM (GE Healthcare, #SH30081.01) supplemented with 10% fetal bovine serum (Biosera), 1% Penicillin/Streptomycin (Gibco), 1% glutamine (Gibco). The IGR-Pub lung adenocarcinoma cells and the autologous T cells P62 were harvested from the same patient in Institut Gustave Roussy. The IGR-Pub cells were cultured in DMEM F12 (GIBCO) supplemented with 10% fetal bovine serum (Biosera), 1% of Ultroser G (Pall), 1% of Sodium Pyruvate (Gibco) and 1% Penicillin/Streptomycin (GIBCO). P62 T cells were cultured in RPMI-1640 (GE Healthcare) supplemented with 10% human AB serum (Institut Jacques Boy, Reims, France), rIL-2 (20 U/ml, Gibco), 1% of Sodium Pyruvate (Gibco) and 0.1% Penicillin/Streptomycin (Gibco). Primary cancer-associated fibroblasts (CAFs) were isolated and cultured as previously reported. All cell lines were periodically tested to exclude mycoplasma contamination using a qPCR-based method (VenorGem Classic, BioValley, #11-1250). The MDA-MB-231 cell line was authenticated by SRT profiling (GenePrint 10 system, Promega, #B9510). Doxorubicin was purchased from Teva pharmaceuticals (200 mg/ml).
Tumor-on-chip preparation The microfluidic devices were purchased from AIM-Biotech (#DAX-1). Cells were seeded in the central chamber of the DAX-1 chips embedded in a matrix composed of type I rat tail collagen (Thermofisher, #A1048301) at the final concentration of 2.3 mg/ml. Cancer cells were seeded in the gel at a final density of 2×10^6 cells/ml. Autologous T cells were added at final densities of 0.2×10^6 to 2×10^6 cells/ml in order to obtain different ratios (from 10:1 to 1:1) between cancer and T cells. Primary CAFs were added at cancer:CAF 6:1 ratio. The microfluidic devices were incubated for 30 min at 37° C. in a humidified chamber to allow the polymerization of the collagen solution; afterwards, 120 µl of culture medium were added in each lateral chamber. MDA-MB-231 cells in chip were cultured in the same medium used for dish 2D culture, whereas the IGR-Pub/P62 cells co-cultures were cultured in T-cell medium, supplemented with rIL-2 (10 U/ml, GIBCO, #PHC0027). After the addition of the medium, the microfluidic devices were kept for 1 hour in the incubator before transfer to the incubating chamber of the microscope for imaging.
Cell staining Cancer cells were labeled with CellTrace™ Yellow (Thermofisher, #C34567) before seeding in the gel, for the detection in the so-called “red channel” of fluorescence. […] CellTrace™ exists in 4 colours so up to 5 different cell populations could potentially be analysed separately (4 colours + unstained) by staining the cells prior to mixing. […]

[2] = tested on: MDA-MB-231 cells co-cultured with CAFs; test: Breast-cancer-on-chip co-culture with cancer-associated fibroblasts, STAMP apoptosis rate; type: cell-based; conditions: 1 µM doxorubicin, 6:1 cancer:CAF ratio, TLAG = 4 h, 68 hrs
Protocol: MDA-MB-231 cancer cells were co-cultured on-chip +/- cancer-associated fibroblasts (CAFs) and +/- doxorubicin (1 µM) treatment. Final CAF:cancer ratio was 1:6. […] The data are the means of 3 measurements coming from 3 videos of the same experiment (+/- SEM). The data illustrating the MDA-MB-231 without CAFs conditions come from the same videos analyzed for FIG. 4 but with different time-interval resolution.
Cell cultures The MDA-MB-231 cell line, from triple negative breast cancer, was cultured in high-glucose DMEM (GE Healthcare, #SH30081.01) supplemented with 10% fetal bovine serum (Biosera), 1% Penicillin/Streptomycin (Gibco), 1% glutamine (Gibco). The IGR-Pub lung adenocarcinoma cells and the autologous T cells P62 were harvested from the same patient in Institut Gustave Roussy. […]
Having established that the STAMP method accurately monitors cancer death within co-cultures of cancer and T cells, we moved to bi-cultures of cancer cells and cancer-associated fibroblasts (CAFs). […] Since it is well established that CAFs contribute to chemoresistance in various cancer types, by co-culturing primary breast CAFs with the breast cancer MDA-MB-231 cells, we assessed the capacity of ToC to recapitulate the CAF impact on doxorubicin resistance ex vivo.

COc1cccc2c1C(=O)c1c(O)c3c(c(O)c1C2=O)C[C@@](O)(C(=O)CO)C[C@@H]3O[C@H]1C[C@H](N)[C@H](O)[C@H](C)O1 [doxorubicin]
latency in the response to doxorubicin ([1]; 3D on-chip (FIG. 4C, right)): 20 h | death rate during the first 20 hrs of treatment ([1]; TLAG = 10 hrs, 3D on-chip): remained at basal level | death rate (apoptosis rate) in 10 hrs-time-intervals ([1]; after 20 hrs of exposure, TLAG = 10 hrs, 3D on-chip, 72 h): more than 10% | Potential of death induction (Pdeath) increase ([1]; during the first 2 days, remains high during the 3rd day, T̃ = 16 hr): 3-4 fold | doxorubicin-dependent apoptotic increase in presence of CAFs [2]: completely impaired
